One molecule from patent US8518956B2, “1-(1-(2-ethoxyethyl)-3-ethyl-7-(4-methylpyridin-2-ylamino)-1H-pyrazolo[4,3-d]pyrimidin-5-yl) piperidine-4-carboxylic acid and salts thereof” (priority 2005, dated 2013) can be followed below.

A short description of series [1]: Method 11: Single Dose Pharmacokinetics and Oral Bioavailability in Male Sprague-Dawley Rat. As to conditions: mean. Type of series: in vivo. How it is done:
Repeat testing is recommended in order to establish a valid assay test result. P. Pharmacokinetic/Pharmacodynamic Study Method 11: Single Dose Pharmacokinetics and Oral Bioavailability in Male Sprague-Dawley Rat Following Intravenous and Oral Administration
An in vivo model can be used to evaluate the single dose pharmacokinetic properties and absolute oral bioavailability of a test compound. As described more specifically below, a test compound is administered to Sprague-Dawley (SD) rats either intravenously or orally in a crossover study design and the resulting pharmacokinetic properties and oral bioavailability are measured.
Male rats are administered a 2.0 mg/kg dose orally (n=2) by gavage as a suspension (0.5% methylcellulose/0.1% Tween 80 in distilled water). After a 72 hour wash-out periond, the same rats were administered 2.0 mg/kg dose bolus intravenously (n=2) as a solution (70% PEG 400/20% 0.05 M Citrate Buffer pH 3/10% Ethanol). Serial blood samples (for plasma) are collected from each rat over a 24 hour post dose for each route. […] Pharmacokinetic parameters of a test compound are determined from the plasma concentration-time data using non-compartmental methods. • LC/MS/MS: 1) Column: Hyperso; AQUASIL C-18 2.1×20 mm, 3.0 μm; 2) Mobile phase: Aqueous Water with 0.1% Formic Acid, Orgainic: Acetonitrile; Ionization: +ESI (API 4000). MRM: m/z 494.4→m/z 394.0 (Example 261 in WO2004096810), m/z 509.44→m/z 409.80 (Example 263 in WO2004096810), m/z 495.33→m/z 395.20 (Example 262 in WO2004096810). The detection limits are 0.12 ng/mL (Example 261 in WO2004096810), 1.3 ng/mL (Example 263 in WO2004096810) and 0.11 ng/mL (Example 262 in WO2004096810).
Watson (Version 6.4.0.04) is used to calculate mean test compound concentrations, corresponding standard deviations (SD), and percent coefficient of variation (% CV), and to estimate pharmacokinetic parameters (derived by noncompartmental methods) and associated statistics (mean, SD & CV %) if applicable. (Since n=2, no SD or CV calculated ?). Concentrations below the limit of quantitation (BLQ) are reported as zero (0) and are used in the evaluation of mean concentrations and the estimation of AUC. The peak plasma concentration (Cmax) and the time to reach peak concentration (tmax) are recorded directly from individual plasma concentration-time profiles. The terminal log-linear phase of the plasma concentration-time curve is identified by linear regression of data points. The terminal half-life (t1/2) is calculated as ln(2) divided by absolute value of the slope of the terminal log-linear phase. The area under the plasma concentration-time curve from time zero to time of the last quantifiable concentration (t) [AUC(0-t)] is determined using the linear trapezoidal method. The area under the plasma concentration-time curve from time zero to infinity [AUC(0-∞)] is determined as AUC(0-t) plus the extrapolated area. The extrapolated area is determined by dividing the last observed plasma concentration by the slope of the terminal log-linear phase. Systemic plasma clearance (CL) is calculated as dose/AUC(0-∞) while the volume of distribution at steady state (Vdss) is calculated as CL×MRT, where MRT (mean residence time) is defined as AUMC(0-∞)/AUC(0-∞). The absolute PO bioavailability (F) is calculated as a ratio of the dose-normalized AUC(0-∞) of individual animal after PO administration to the dose-normalized AUC(0-∞) of individual animal after IV administration given the crossover study design.

The test system of the next series is urinary cGMP. Nature of the series: Method 12: SHR Rat Combination Therapy, urinary cGMP mechanistic biomarker. Type of series: in vivo. As to conditions: 0-24 hour urine collection on day 9.
Series [2] has as its system Chinese hamster ovary (CHO) cells. Description: Method 7: Micronucleus Assay. As to conditions: in vitro, with and without S9. The series is classed as cell-based. How it is done:
Method 7: Micronucleus Assay
An in vitro micronucleus assay can be used to determine the mutagenic potential of a test compound. This assay detects chromosome abnormalities resulting from exposure to a test compound by measuring the formation of small membrane-bound DNA fragments such as micronuclei in the cytoplasm of interphase cells.
The assay is conducted using Chinese hamster ovary (CHO) cells under different test conditions in the absence and presence of metabolic activation. Concordance in outcomes between this screening assay and in vitro cytogenetics is around 85%. Direct (−S9) testing is conducted using 24 hour or 3 hour continuous treatments, whereas testing with metabolic activation (+S9) involves a 3 hour treatment. Clastogenicity is indicated by an increase in numbers of micronucleated cells in the first interphase after exposure (in cytokinesis-blocked binucleated cells). The results are compared to the level of cytotoxicity (measured by the proportion of binucleated cells) a test compound produces. […] A test compound displaying a negative response has not fulfilled specific evaluation criteria for the assay which may include one or both of the following: 1) a reproducible concentration dependent increase in the specific assay endpoint when compared to a negative (vehicle) control and/or 2) one or more test concentrations achieving a minimum fold increase in the specific endpoint over controls. • Positive—A positive result identifies a genotoxic hazard defined by the assays specific endpoint (ex. positive in vitro micronucleus). A test compound displaying a positive response has fulfilled specific evaluation criteria for the assay which may include one or both of the following: 1) a reproducible concentration dependent increase in the specific assay endpoint when compared to a negative (vehicle) control and/or 2) one or more test concentrations achieving a minimum fold increase in the specific endpoint over controls. • Equivocal—An equivocal result is reserved for situations where the test compound has been evaluated in a valid assay test or tests (i.e. assay acceptability criteria satisfactory), but fails to display a negative or positive result as defined by established evaluation criteria. This may convey the presence of a weak positive response that requires additional repeat testing or eventual confirmatory testing case-by-case. • Inconclusive—An inconclusive result is reserved for situations where the test compound has been evaluated in an invalid assay test (i.e. assay acceptability criteria unsatisfactory for technical reasons, ex. negative or positive controls fail to respond appropriately). Repeat testing is recommended in order to establish a valid assay test result.

The subject of series [3] is spontaneously hypertensive rats (SHR). Nature of the series: Method 12: SHR Rat Combination Therapy, blood pressure by telemetry. Type of series: in vivo. As to conditions: 1 mg/kg once daily oral.

On to `CCOCCn1nc(CC)c2nc(N3CCC(C(=O)O)CC3)nc(Nc3cc(C)ccn3)c21` [Carboxypiperidine Compound, 1-(1-(2-ethoxyethyl)-3-ethyl-7-(4-methylpyridin-2-ylamino)-1H-pyrazolo[4,3-d]pyrimidin-5-yl)piperidine-4-carboxylic acid], for which, in series [1] (plasma, iv, 2 mg/kg), the AUC(0-inf) (as a rule, total exposure, with the tail of the curve extrapolated) is 17500 ng·h/mL. For the same molecule, the Vd in series [1] (plasma, iv, 2 mg/kg, read-out: Vdss) was 0.715 L/kg. Further, in series [1] (plasma, po, 2 mg/kg), the AUC(0-inf) is 9070 ± 2300 ng·h/mL, the peak level (Cmax) was 1360 ± 216 ng/mL and the Tmax (usually the time from dosing to the highest level) stood at 30 ± 12 min. In addition, in series [1] (po 2 mg/kg vs iv 2 mg/kg), the F was 51.8 ± 13.1%. For the same molecule, in the series on urinary cGMP, the “urinary cGMP in comparison to vehicle treated group” value is recorded as “elevated”. The “METHOD 7: MI[…]” value in series [2] is reported as “equivocal”. Also, in series [3] (day 1), the “reduction of blood pressure from pre-dose baseline in comparison to vehicle treated group” value is given as 11±1 mmHg. In addition, in series [3] (day 7), the “reduction of blood pressure below pre-dose baseline” value is given as 9±1 mmHg.
